Key:
SNK-6 (IL-2 2.5 ng/mL) [1] = test: percent inhibition of viability; higher = more inhibition; conditions: 72 h
[2] = system: normal primary NK cells, pool 3 (3 donors) (IL-2 2.5 ng/mL); test: as above; conditions: 72 h
NK-YS (IL-2 2.5 ng/mL) [3] = test: as above; conditions: 72 h
NK-92 (IL-2 2.5 ng/mL) [4] = test: as above; conditions: 72 h
[5] = system: normal primary NK cells, pool 2 (3 donors) (IL-2 2.5 ng/mL); test: as above; conditions: 72 h
KAI3 (IL-2 2.5 ng/mL) [6] = test: as above; conditions: 72 h
IMC-1 (IL-2 20 ng/mL) [7] = test: as above; conditions: 72 h
[8] = system: normal primary NK cells, pool 1 (3 donors) (IL-2 2.5 ng/mL); test: as above; conditions: 72 h
NKL (IL-2 2.5 ng/mL) [9] = test: as above; conditions: 72 h
KHYG-1 (IL-2 2.5 ng/mL) [10] = test: as above; conditions: 72 h
[11] = system: normal primary NK cells, pool 1 (3 donors), resting (IL-2 0 ng/mL); test: as above; conditions: 72 h
YT (IL-2 2.5 ng/mL) [12] = test: as above; conditions: 72 h
DERL-7 (IL-2 2.5 ng/mL) [13] = test: as above; conditions: 72 h
SNK-6 (IL-2 2.5 ng/mL) [14] = test: drug sensitivity score (DSS) (DSS units); higher = more sensitive; extreme values may be limits of the assay; conditions: 72 h
[15] = system: normal primary NK cells, pool 3 (3 donors) (IL-2 2.5 ng/mL); test: as above; conditions: 72 h
NK-YS (IL-2 2.5 ng/mL) [16] = test: as above; conditions: 72 h
NK-92 (IL-2 2.5 ng/mL) [17] = test: as above; conditions: 72 h
[18] = system: normal primary NK cells, pool 2 (3 donors) (IL-2 2.5 ng/mL); test: as above; conditions: 72 h
KAI3 (IL-2 2.5 ng/mL) [19] = test: as above; conditions: 72 h
IMC-1 (IL-2 20 ng/mL) [20] = test: as above; conditions: 72 h
[21] = system: normal primary NK cells, pool 1 (3 donors) (IL-2 2.5 ng/mL); test: as above; conditions: 72 h
NKL (IL-2 2.5 ng/mL) [22] = test: as above; conditions: 72 h
KHYG-1 (IL-2 2.5 ng/mL) [23] = test: as above; conditions: 72 h
[24] = system: normal primary NK cells, pool 1 (3 donors), resting (IL-2 0 ng/mL); test: as above; conditions: 72 h
YT (IL-2 2.5 ng/mL) [25] = test: as above; conditions: 72 h
DERL-7 (IL-2 2.5 ng/mL) [26] = test: as above; conditions: 72 h
[27] = system: normal NK cells expanded with K562-aAPC; test: percent inhibition of viability; higher = more inhibition; conditions: 72 h, IL-2 2.5 ng/mL
Protocol: (§1)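 Drug sensitivity and resistance testing on K562-aAPC-expanded normal NK cells: 5 concentrations (10-fold steps over a 10,000-fold range), 72 h at 37 °C, viability by CellTiter-Glo normalised to DMSO and benzethonium chloride controls; DSS from the fitted curve.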

[28] = system: normal NK cells expanded with K562-aAPC; test: drug sensitivity score (DSS) (DSS units); higher = more sensitive; extreme values may be limits of the assay; conditions: 72 h; IL-2 2.5 ng/mL
Protocol: as §1

## CNC(=O)c1ccccc1Sc1ccc2c(/C=C/c3ccccn3)n[nH]c2c1 [Axitinib] (max concentration tested 10000 nM)
SNK-6 (IL-2 2.5 ng/mL) [1]; 1 nM
  percent inhibition of viability: -4.55%
SNK-6 (IL-2 2.5 ng/mL) [1]; 10 nM
  percent inhibition of viability: -16.4%
SNK-6 (IL-2 2.5 ng/mL) [1]; 100 nM
  percent inhibition of viability: -11.7%
SNK-6 (IL-2 2.5 ng/mL) [1]; 1000 nM
  percent inhibition of viability: 55.8%
SNK-6 (IL-2 2.5 ng/mL) [1]; 10000 nM
  percent inhibition of viability: 78.6%
[2]; 1 nM
  percent inhibition of viability: -8.62%
[2]; 10 nM
  percent inhibition of viability: 6.8%
[2]; 100 nM
  percent inhibition of viability: 13%
[2]; 1000 nM
  percent inhibition of viability: 1.12%
[2]; 10000 nM
  percent inhibition of viability: 23%
NK-YS (IL-2 2.5 ng/mL) [3]; 1 nM
  percent inhibition of viability: -3.68%
NK-YS (IL-2 2.5 ng/mL) [3]; 10 nM
  percent inhibition of viability: -2.56%
NK-YS (IL-2 2.5 ng/mL) [3]; 100 nM
  percent inhibition of viability: 3.21%
NK-YS (IL-2 2.5 ng/mL) [3]; 1000 nM
  percent inhibition of viability: 38.7%
NK-YS (IL-2 2.5 ng/mL) [3]; 10000 nM
  percent inhibition of viability: 85%
NK-92 (IL-2 2.5 ng/mL) [4]; 1 nM
  percent inhibition of viability: -13.6%
NK-92 (IL-2 2.5 ng/mL) [4]; 10 nM
  percent inhibition of viability: -7.2%
NK-92 (IL-2 2.5 ng/mL) [4]; 100 nM
  percent inhibition of viability: -14%
NK-92 (IL-2 2.5 ng/mL) [4]; 1000 nM
  percent inhibition of viability: 24.3%
NK-92 (IL-2 2.5 ng/mL) [4]; 10000 nM
  percent inhibition of viability: 90.7%
[5]; 1 nM
  percent inhibition of viability: -13.7%
[5]; 10 nM
  percent inhibition of viability: 4.14%
[5]; 100 nM
  percent inhibition of viability: 6.01%
[5]; 1000 nM
  percent inhibition of viability: -6.27%
[5]; 10000 nM
  percent inhibition of viability: 42.8%
KAI3 (IL-2 2.5 ng/mL) [6]; 1 nM
  percent inhibition of viability: 2.52%
KAI3 (IL-2 2.5 ng/mL) [6]; 10 nM
  percent inhibition of viability: -0.91%
KAI3 (IL-2 2.5 ng/mL) [6]; 100 nM
  percent inhibition of viability: 10.2%
KAI3 (IL-2 2.5 ng/mL) [6]; 1000 nM
  percent inhibition of viability: 47.2%
KAI3 (IL-2 2.5 ng/mL) [6]; 10000 nM
  percent inhibition of viability: 82%
IMC-1 (IL-2 20 ng/mL) [7]; 1 nM
  percent inhibition of viability: -1.86%
IMC-1 (IL-2 20 ng/mL) [7]; 10 nM
  percent inhibition of viability: -0.66%
IMC-1 (IL-2 20 ng/mL) [7]; 100 nM
  percent inhibition of viability: 0.71%
IMC-1 (IL-2 20 ng/mL) [7]; 1000 nM
  percent inhibition of viability: 4.7%
IMC-1 (IL-2 20 ng/mL) [7]; 10000 nM
  percent inhibition of viability: 89.3%
[8]; 1 nM
  percent inhibition of viability: -5.69%
[8]; 10 nM
  percent inhibition of viability: 14.3%
[8]; 100 nM
  percent inhibition of viability: 5.75%
[8]; 1000 nM
  percent inhibition of viability: 13.8%
[8]; 10000 nM
  percent inhibition of viability: 44.6%
NKL (IL-2 2.5 ng/mL) [9]; 1 nM
  percent inhibition of viability: -1.55%
NKL (IL-2 2.5 ng/mL) [9]; 10 nM
  percent inhibition of viability: -1.93%
NKL (IL-2 2.5 ng/mL) [9]; 100 nM
  percent inhibition of viability: 18.9%
NKL (IL-2 2.5 ng/mL) [9]; 1000 nM
  percent inhibition of viability: 32.5%
NKL (IL-2 2.5 ng/mL) [9]; 10000 nM
  percent inhibition of viability: 69.6%
KHYG-1 (IL-2 2.5 ng/mL) [10]; 1 nM
  percent inhibition of viability: -2.88%
KHYG-1 (IL-2 2.5 ng/mL) [10]; 10 nM
  percent inhibition of viability: -3.36%
KHYG-1 (IL-2 2.5 ng/mL) [10]; 100 nM
  percent inhibition of viability: 4.43%
KHYG-1 (IL-2 2.5 ng/mL) [10]; 1000 nM
  percent inhibition of viability: 49.4%
KHYG-1 (IL-2 2.5 ng/mL) [10]; 10000 nM
  percent inhibition of viability: 93.1%
[11]; 1 nM
  percent inhibition of viability: -14.3%
[11]; 10 nM
  percent inhibition of viability: 9%
[11]; 100 nM
  percent inhibition of viability: 2.7%
[11]; 1000 nM
  percent inhibition of viability: 0.6%
[11]; 10000 nM
  percent inhibition of viability: 42.6%
YT (IL-2 2.5 ng/mL) [12]; 1 nM
  percent inhibition of viability: -2.15%
YT (IL-2 2.5 ng/mL) [12]; 10 nM
  percent inhibition of viability: -4.48%
YT (IL-2 2.5 ng/mL) [12]; 100 nM
  percent inhibition of viability: 1.03%
YT (IL-2 2.5 ng/mL) [12]; 1000 nM
  percent inhibition of viability: 33%
YT (IL-2 2.5 ng/mL) [12]; 10000 nM
  percent inhibition of viability: 85%
DERL-7 (IL-2 2.5 ng/mL) [13]; 1 nM
  percent inhibition of viability: -3.47%
DERL-7 (IL-2 2.5 ng/mL) [13]; 10 nM
  percent inhibition of viability: 7.74%
DERL-7 (IL-2 2.5 ng/mL) [13]; 100 nM
  percent inhibition of viability: 27%
DERL-7 (IL-2 2.5 ng/mL) [13]; 1000 nM
  percent inhibition of viability: 64.5%
DERL-7 (IL-2 2.5 ng/mL) [13]; 10000 nM
  percent inhibition of viability: 94%
SNK-6 (IL-2 2.5 ng/mL) [14]
  drug sensitivity score: 10.8
[15]
  drug sensitivity score: 0.95
NK-YS (IL-2 2.5 ng/mL) [16]
  drug sensitivity score: 9.35
NK-92 (IL-2 2.5 ng/mL) [17]
  drug sensitivity score: 8.68
[18]
  drug sensitivity score: 1.77
KAI3 (IL-2 2.5 ng/mL) [19]
  drug sensitivity score: 10.5
IMC-1 (IL-2 20 ng/mL) [20]
  drug sensitivity score: 5.63
[21]
  drug sensitivity score: 3.89
NKL (IL-2 2.5 ng/mL) [22]
  drug sensitivity score: 8.51
KHYG-1 (IL-2 2.5 ng/mL) [23]
  drug sensitivity score: 11
[24]
  drug sensitivity score: 2.23
YT (IL-2 2.5 ng/mL) [25]
  drug sensitivity score: 9.19
DERL-7 (IL-2 2.5 ng/mL) [26]
  drug sensitivity score: 15.7
[27]; 1 nM
  percent inhibition of viability: -1.18%
[27]; 10 nM
  percent inhibition of viability: -2.54%
[27]; 100 nM
  percent inhibition of viability: -3.5%
[27]; 1000 nM
  percent inhibition of viability: 11.1%
[27]; 10000 nM
  percent inhibition of viability: 58.7%
[28]
  drug sensitivity score: 5.02
